The test system of the test is hydroxylated (OH)-HIF-1α at P402 or P564, PHD2, HIF-1β. Put plainly: Western blot of hydroxylated HIF-1α, PHD2 and HIF-1β in A549 cells. In kind it is cell-based, human. Conditions: 1–100 nM, 16 h. Here is the method: Figure 4 Compound 12 increased hydroxylation and proteasome-mediated degradation of HIF-1α (A) A549 cells were treated with Compound 12 (at concentrations of 0 nM, 1 nM, 10 nM, and 100 nM) for 16 h. Cells were fixed with paraformaldehyde; an immunofluorescence assay was then performed using anti-HIF-1α antibodies and Alexa Fluor 488-labeled secondary antibodies (green). Nuclei were stained with DAPI. N, normoxia; H, hypoxia. (B) A549 cells were treated with Compound 12 (10 nM concentration) and exposed to hypoxic conditions for 16 h. Cells were immediately treated with cycloheximide (CHX, 100 μg/mL) for the time indicated, and HIF-1α protein levels were determined by western blotting. β-actin was used as an internal control. Half-life (t1/2) of HIF-1α protein was determined using relative expression levels of HIF-1α. (C) A549 cells were treated with Compound 12 (at concentrations of 0 nM, 1 nM, 10 nM, and 100 nM) for 16 h. The expression levels of HIF-1α, hydroxylated (OH)-HIF-1α at P402 or P564, and PHD2 were determined via western blotting using specific antibodies. N, normoxia; H, hypoxia. (D) A549 cells were transfected with two kinds of small interfering RNAs targeting PHD2 and then treated with Compound 12 under hypoxic exposure for 16 h. Cell lysates were immunoblotted with an anti-HIF-1α and PHD2 antibody. (E) After A549 cells were treated with Compound 12 for 16 h, cells were treated with MG132 (20 μM) for 4 h. Cell lysates were immunoprecipitated (IP) with anti-HIF-1α antibody, and were then immunoblotted (IB) with anti-ubiquitin antibody. Relative levels of ubiquitinated HIF-1α were quantified and graphed. […]
Proteins extracted from cells using PRO-PREP (iNtRon Biotech, South Korea) were separated by SDS-PAGE and transferred to a nitrocellulose membrane (Whatman, Maidstone, UK). […] Antibody binding was detected using an enhanced chemiluminescence (ECL) kit (BioRad, Hercules, CA) according to the manufacturer's instructions. […]

Consider one molecule from article PMC5352362, “Molecular and functional evaluation of a novel HIF inhibitor, benzopyranyl 1,2,3-triazole compound” (Oncotarget, 2016).

On to `COc1ccc(-c2cn(CC3(C)C=Cc4cc([N+](=O)[O-])ccc4O3)nn2)cc1` (stereo not drawn) [Compound 12, 4-(4-methoxyphenyl)-1-((2-methyl-6-nitro-2H-chromen-2-yl)methyl)-1H-1,2,3-triazole], for which the HIF-1β expression entry was “did not inhibit”; the PHD2 levels result is given as “increased even at the lowest dose (1 nM)”; the “hydroxylation of HIF-1α (P402, P564)” value is reported as “increased hydroxylation of HIF-1α in a dose-dependent manner”.
